Source: ChEMBL document CHEMBL1201862, “PubChem BioAssay data set” (2004)
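How tested: cells in 96-well plates exposed to compound for 48 hours at five concentrations. GI50 marks 50% less growth.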 Activity calls are given as the source filed them. No stated cut-off is given here; in the data, active = GI50 up to about 1.1 µM and inactive = higher.

Legend:
Test in all cases: growth of human tumour cells (NCI), 48 h
[1] = system: SK-MEL-28
[2] = system: MOLT-4
[3] = system: A549
[4] = system: NCI-H460
[5] = system: KM12
[6] = system: TK-10
[7] = system: T47D
[8] = system: SK-OV-3
[9] = system: UACC-257
[10] = system: HCC 2998
[11] = system: SK-MEL-5
[12] = system: SNB-19
[13] = system: ACHN
[14] = system: SF-268
[15] = system: RPMI-8226
[16] = system: UO-31
[17] = system: K562
[18] = system: OVCAR-4
[19] = system: NCI-H522
[20] = system: UACC-62

Measured: GI50

COc1cccc(/C=C2\S/C(=N/Nc3nc(-c4ccc([N+](=O)[O-])cc4)cs3)NC2=O)c1O
inactive: [1] 20.8 µM | [2] 22.1 µM | [3] 15.9 µM | [4] 12.6 µM | [5] 13.2 µM | [6] 20.7 µM | [7] 4.66 µM | [8] 26.9 µM | [9] 27.5 µM | [10] 17.5 µM | [11] 12.2 µM | [12] 5.19 µM | [13] 17.3 µM | [14] 5 µM | [15] 10.4 µM | [16] 12.5 µM

CCc1c(-c2ccc(OC)cc2)oc(OC)c(C)c1=O
inactive: [17] 34.2 µM | [1] > 100 µM | [2] 31.9 µM | [3] 79.1 µM | [4] 40.5 µM | [5] > 100 µM | [6] > 100 µM | [7] 45 µM | [8] > 100 µM | [9] 65.6 µM | [18] 85.9 µM | [10] > 100 µM | [11] 32.2 µM | [12] > 100 µM | [13] 42.3 µM | [14] > 100 µM | [19] 47.4 µM | [20] 64 µM | [16] 64.6 µM

CCCCCCCCCCCCCCCCNC(=O)/C(=C\c1ccc(Cl)c(Cl)c1)NC(=O)c1ccccc1
inactive: [17] 22 µM | [1] 70.1 µM | [2] 15.5 µM | [3] 43.6 µM | [4] 36.6 µM | [5] 52.6 µM | [6] 20 µM | [7] > 100 µM | [8] 53 µM | [9] > 100 µM | [18] 24.8 µM | [11] > 100 µM | [12] 46.3 µM | [13] 47.4 µM | [14] 46.9 µM | [19] 37.2 µM | [15] 24.4 µM | [16] 42 µM

Cc1ccc(S(=O)(=O)n2cc(C=O)c(-c3cn(S(=O)(=O)c4ccc(C)cc4)cc3-c3cn(S(=O)(=O)c4ccc(C)cc4)cc3C=O)c2)cc1
inactive: [17] 24.3 µM | [2] 12.8 µM | [3] 72.4 µM | [4] 29.2 µM | [5] 50.7 µM | [6] 20.9 µM | [7] 28 µM | [8] > 100 µM | [9] 54.1 µM | [10] > 100 µM | [11] 41.6 µM | [12] 50.2 µM | [14] > 100 µM | [19] 26.9 µM | [20] 48.1 µM | [15] 8.36 µM | [16] 52.6 µM

CSc1ccc(-c2cc(-c3nc4ccccc4[nH]3)nc(N)c2C#N)cc1
inactive: [17] 18.4 µM | [1] 20.2 µM | [2] 8.39 µM | [3] 23.1 µM | [4] 22 µM | [5] 21 µM | [6] 31.6 µM | [7] 13.5 µM | [8] 33 µM | [9] 18.5 µM | [10] 17.1 µM | [11] 13.3 µM | [12] 25.2 µM | [13] 19.9 µM | [14] 17.3 µM | [19] 16.1 µM | [20] 12.3 µM | [15] 21.4 µM

CCOC(=O)N1C(=S)C(C(=O)OC)(C(=O)OC)N=C1C
inactive: [17] > 100 µM | [1] > 100 µM | [2] > 100 µM | [3] > 100 µM | [4] > 100 µM | [5] > 100 µM | [6] > 100 µM | [7] > 100 µM | [8] > 100 µM | [9] > 100 µM | [18] > 100 µM | [10] > 100 µM | [11] > 100 µM | [12] > 100 µM | [13] > 100 µM | [20] > 100 µM | [15] > 100 µM | [16] > 100 µM

CC(C)c1ccc(/C=C2\CSCC3=C2N=C2SCC(=O)N2C3c2ccc(C(C)C)cc2)cc1 (stereo unspecified)
inactive: [17] > 100 µM | [1] > 100 µM | [2] 75.5 µM | [3] > 100 µM | [4] > 100 µM | [5] > 100 µM | [6] > 100 µM | [7] 57.9 µM | [8] > 100 µM | [9] > 100 µM | [18] > 100 µM | [10] > 100 µM | [11] > 100 µM | [13] > 100 µM | [14] > 100 µM | [20] > 100 µM | [15] 80.7 µM | [16] 40.4 µM

CC1(C)COC(c2cccc(C3=NC(C)(C)CO3)c2Br)=N1
inactive: [17] > 100 µM | [1] > 100 µM | [2] > 100 µM | [3] > 100 µM | [4] > 100 µM | [5] > 100 µM | [6] > 100 µM | [7] > 100 µM | [9] > 100 µM | [18] > 100 µM | [10] > 100 µM | [11] > 100 µM | [12] > 100 µM | [13] > 100 µM | [14] > 100 µM | [20] 7.48 µM | [15] > 100 µM | [16] > 100 µM

CC(C)=CC1C(C(=O)OCc2cc3c(cc2Cl)OCO3)C1(C)C (stereo unspecified)
inactive: [17] 20.1 µM | [1] 54.1 µM | [2] 13.1 µM | [3] 31.5 µM | [4] 24.4 µM | [5] 27.7 µM | [6] 63.2 µM | [7] 17.3 µM | [9] 12.6 µM | [18] 49.8 µM | [10] 17 µM | [11] 16.7 µM | [12] > 100 µM | [13] 28.7 µM | [14] 39.7 µM | [19] 15.1 µM | [20] 43.1 µM | [16] 46.1 µM

CN(C(=O)CCC(=O)O)c1ccccc1C(=O)O
inactive: [17] > 100 µM | [1] > 100 µM | [2] > 100 µM | [3] > 100 µM | [4] > 100 µM | [5] > 100 µM | [6] > 100 µM | [7] > 100 µM | [8] > 100 µM | [9] 40.4 µM | [18] > 100 µM | [10] > 100 µM | [11] > 100 µM | [12] > 100 µM | [13] > 100 µM | [14] > 100 µM | [20] > 100 µM | [15] > 100 µM | [16] > 100 µM

O=C1NC(=O)[C@H]2C3C=CC([C@@H]12)[C@@H]1C(=O)NC(=O)[C@H]31
inactive: [17] > 100 µM | [1] > 100 µM | [2] > 100 µM | [3] > 100 µM | [4] > 100 µM | [6] > 100 µM | [7] > 100 µM | [9] > 100 µM | [10] > 100 µM | [11] > 100 µM | [12] > 100 µM | [13] > 100 µM | [14] > 100 µM | [19] > 100 µM | [20] > 100 µM | [15] > 100 µM | [16] > 100 µM
